In patent US7973219B2, “Method for producing transgenic plants resistant to weed control compounds which disrupt the porphyrin pathways of plants” (Sumitomo Chemical Company, Limited, priority 1998, dated 2011):
Read-outs that look alike come from different tables or passages of the source.

Tests used:
[1] = system: E. coli BT3/pACYCSP+pTCHLH1 strain; experiment: Growth of E. coli BT3/pACYCSP+pTCHLH1 (variant tobacco chelatase subunit) with herbicidal compound; format: cell-based, Escherichia coli; conditions: 18 hours culture, Table 6
Description: According to the description of Gibson, L. C. D. et al., Proc. Natl. Acad. Sci. USA, 92; p 1941 (1995), the DNA fragment containing bchH gene prepared in Example 1 was digested with the restriction enzymes NdeI and BglII. The resultant DNA fragment was inserted between NdeI restriction site and BamHI restriction site of expression vector pET11a (manufactured by Stratagene) to obtain plasmid pETBCH (FIG. 1). This plasmid pETBCH was introduced into E. coli BL21(DE3) strain competent cells (manufactured by Stratagene) according to the manual attached to the competent cells to obtain E. coli BL21(DE3)/pETBCH strain. The strain was inoculated into 1.5 ml LB liquid culture medium (1% tryptone, 0.5% yeast extract, 0.5% NaCl) containing 100 μg/ml ampicillin in a tube (14×10 mm), and the tube was covered with aluminum foil (hereinafter referred to as dark conditions), cultured with shaking at 37° C. under light of fluorescent lamp (about 8000 lux). When the absorbance at 600 nm of the liquid culture medium became about 0.6, isopropyl β-D-thiogalactopyranoside (IPTG) was added to the liquid culture medium so that the final concentration was 0.4 mM, and the culture was continued for about additional 20 hours. […] In contrast to this, when E. coli BL21(DE3)/pETBCH strain was cultured according to the same manner (with IPTG) except that the tube was not covered with aluminum foil (hereinafter referred to as light conditions), E. coli grew and turned red as above.
The plasmid pTCHLH1 and pCR2.1 prepared in Example 7 were introduced into E. coli BT3/pACYCSP strain prepared in Example 3, respectively according to the method described in Hanahan, D. J., Mol. Biol., 166; p 557 (1983). E. coli BT3/pACYCSP+pTCHLH1 strain bearing plasmids pACYCSP and pTCHLH1, and E. coli BT3/pACYCSP+pCR2.1 strain bearing plasmids pACYCSP and pCR2.1 were obtained by culturing the above strains in YPT medium containing 100 μg/ml ampicillin, 15 μg/ml chloramphenicol and 50 μg/ml kanamycin, respectively.
These E. coli strains were inoculated into YPT medium containing 10 or 1 ppm of the PPO inhibitory-type herbicidal compound represented by Structure 8, 100 μg/ml ampicillin, 15 μg/ml chloramphenicol, 50 μg/ml kanamycin, 10 μg/ml hemin and 50 μg/ml aminolevulinic acid, cultured under dark conditions or light conditions according to the same manner as in Example 2. Then, 18 hours after initiation of culture, the absorbance of the liquid culture medium was measured at 600 nm. By taking the absorbance of the medium without the herbicidal compound as 1, the relative value of the absorbance of the medium containing the herbicidal compound was calculated.

[2] = system: control recombinant tobacco; experiment: Leaf piece chlorophyll test, control recombinant tobacco; format: in vivo; conditions: control recombinant tobacco; for activity at 0.3 ppm: Nicotiana tabacum, read-out: Resistant level to test compound
Method: Then, according to the method described in Manual for Gene Manipulation of Plant (by Hirofumi UCHIMIYA, Kodan-sha Scientific, 1992), the gene was introduced into tobacco. Agrobacterium strain bearing plasmid pBIBCH was cultured at 28° C. overnight in LB medium and then leaf pieces of tobacco cultured sterilely were dipped in the liquid culture medium. The leaf pieces were cultured at room temperature for 2 days in Murashige-Skoog medium (MS-medium, described in Murasige T. and Skoog F., Physiol. Plant. (1962) 15, p 473) containing 0.8% agar, 0.1 mg/liter naphthalene acetic acid and 1.0 mg/liter benzyl aminopurine. Then, the leaf pieces were washed with sterilized water and cultured for 7 days on MS medium containing 0.8% agar, 0.1 mg/liter naphthalene acetic acid, 1.0 mg/liter benzyl aminopurine and 500 μg/ml cefotaxime. The leaf pieces were transplanted onto MS medium containing 0.8% agar, 0.1 mg/liter naphthalene acetic acid, 1.0 mg/liter benzyl aminopurine, 500 μg/ml cefotaxime and 100 μg/ml kanamycin (hereinafter referred to as selective MS medium) and cultured on the medium continuously for 4months with transplanting the tobacco leaf pieces onto fresh selective MS medium every 1 month. During culture, stem-leaf differentiated shoots were appeared from the tobacco leaf pieces, these shoots were transplanted to MS medium containing 0.8% agar, 300 μg/ml cefotaxime and 50 μg/ml kanamycin to induce roots to obtain regenerated plants. The resultant regenerated plant was transplanted and cultured on MS medium 0.8% agar and 50 μg/ml kanamycin to obtain tobacco plant into which bchH gene was introduced. Similarly, tobacco leaf pieces were infected with Agrobacterium strain bearing pNO to obtain regenerated plant from the tobacco leaf pieces and tobacco plant (hereinafter referred to as control recombinant tobacco).
The tobacco leaves into which bchH gene was introduced and control recombinant tobacco leaves obtained in Example 5 were collected and each leaf was divided into the right and left equivalent pieces along the main vein, respectively. To one piece was applied an aqueous solution containing 0.3 ppm PPO inhibitory-type herbicidal compound of Structure 8, while, to the other piece was not applied the compound. These leaf pieces were placed on MS medium containing 0.8% agar and allowed to stand at room temperature for 7 days in light place. Then, each leaf piece was ground with pestle and mortar in 5 ml of 80% aqueous acetone solution to extract chlorophyll. The extract liquid was diluted with 80% aqueous acetone solution and the absorbance was measured at 750 nm, 663 nm and 645 nm to calculate total chlorophyll content according to the method described by Macknney G., J. Biol. Chem. (1941) 140, p 315. The results obtained from 4 clones of tobacco into which bchH gene was introduced (BCH1 to 4) and control recombinant tobacco is shown in Table 4. In the table, the resistant level to the herbicidal compound was represented by percentages of the total chlorophyll content of leaf pieces treated with herbicidal compound to that of untreated leaf pieces.
The tobacco clone into which bchH gene was introduced and control recombinant tobacco were also treated in the same manner with the solution containing PPO inhibitory-type herbicidal compound represented by the above Structure 3, 7, 10, 11, 13, 17, 23, 24, 25, 27, 28, 30 or 35, and the resistant level to each herbicidal compound was measured. In the table, the resistant levels to the herbicidal compound were represented by percentages of the total chlorophyll content of leaf pieces treated with the herbicidal compound to that of untreated leaf pieces.
The level of resistance to PPO inhibitory type herbicidal compound represented by Structure 8 was confirmed quantitatively by testing tobacco into which the gene encoding the variant soybean PPO prepared in Example 13 was introduced according to the same manner as in Example 6. […]

C#CCOc1cc(N2C(=O)C3=C(CCCC3)C2=O)c(F)cc1Cl [Structure 8]
Relative absorbance ([1]; in the dark, 1 ppm): 0.93 | Relative absorbance ([1]; in the dark, 10 ppm): 0.92 | Relative absorbance ([1]; in the light, 1 ppm): 0.89 | Relative absorbance ([1]; in the light, 10 ppm): 0.69 | activity at 0.3 ppm ([2]; 168 h, 0.3 ppm, 7 days in light, chlorophyll of treated vs untreated leaf pieces, Table 4): 7.63% | activity at 0.3 ppm ([2]; same manner as Example 6 (0.3 ppm), treated vs untreated leaf pieces, Table 8): 10% | activity at 0.3 ppm ([2]; same manner as Example 6 (0.3 ppm), treated vs untreated leaf pieces, Table 10): 18.4% | activity at 0.3 ppm ([2]; same manner as Example 6 (0.3 ppm), treated vs untreated leaf pieces, Table 12): 8.29% | Total chlorophyll content treated-leaf ([2]; 0.3 ppm, leaf pieces 7 days in light place, Table 4): 0.19 mg/g-fresh weight | resistant level ([2]; 2.0 ppm, 7 days in a light place, chlorophyll of treated vs untreated leaf pieces, Example 37): 2.88% | Total chlorophyll content treated-leaf ([2]; same manner as Example 6 (0.3 ppm, 7 days in light), Table 8): 0.35 mg/g-fresh weight | Total chlorophyll content treated-leaf ([2]; same manner as Example 6 (0.3 ppm, 7 days in light), Table 10): 0.42 mg/g-fresh weight | Total chlorophyll content treated-leaf ([2]; same manner as Example 6 (0.3 ppm, 7 days in light), Table 12): 0.160 mg/g-fresh weight
